Legend:
[1] = test system: Phytophthora parasitica var. nicotianae (Ppn) isolate 329; experiment: Curative treatment of tobacco leaf discs against a pathogen: surface area of region of infection; format: in vivo; conditions: 50 μl composition (1% extract), 100 μl zoospore suspension, three days after the infiltrations
Description: Identical compositions are used, as well as leaves originating from the same tobacco plants as in Example 2. Two discs ([…]) are cut from a single leaf and then placed in a Petri dish containing a layer of 2% agarose gel.
The pathogen selected for the study is Phytophthora parasitica var. nicotianae (Ppn) isolate 329. The Ppn is grown on Malt Agar at 24° C. For the production of zoospores, the Ppn mycelium is grown for a week in V8 liquid medium at 24° C. under continuous light conditions, macerated, and then incubated for four days in water containing 2% agar. The zoospores are released by means of thermal shock consisting of two incubations, a first at 4° C. for 20 min, a second at 37° C. for 30 min after addition of 10 ml water. A zoospore suspension in water (1 zoospore per microliter) is prepared before being inoculated.
The compositions containing the extracts (50 μl) are infiltrated and the zoospore suspensions (100 μl) are inoculated into two separate regions, 1 cm apart, of the tobacco leaf parenchyma. Assays in which the compositions are replaced with salicylic acid (positive control) or ultrapure water (negative control) are performed. Three days after the infiltrations, the surface area of the region of infection is measured. The measurements are made using the Optima and Photoshop software for Windows.

[2] = Sulcotrione photoprotection test (Suntest irradiation, HPLC); format: physicochemical
Description: The pesticide used is sulcotrione. It was used in its Mikado commercial formulation. Sulcotrione degrades when irradiated by sunlight. The speed of the photodegradation depends on the environment of the molecule. To be representative of actual usage conditions of the pesticide, the rate of sulcotrione photodegradation is measured with the latter being dry, deposited in crystallizing dishes where the bottom is covered by a film of paraffin wax simulating the thin layer of epicuticular wax covering the surface of plants.
The formulated sulcotrione is deposited alone or in the presence of the compositions, 1 ml per crystallizing dish. The concentration of sulcotrione is fixed at 8 mg/l (100 g/ha) and that of the extracts is adjusted so that the absorbance of the compositions at 300 nm is equal to 4 for a 1 mm path length. The pH of the two compositions is normalized to 4.5 by the addition of sodium hydroxide. The crystallizing dishes are then inserted into a Suntest irradiator delivering a radiation similar in photon distribution and intensity to sunlight when the sun is at zenith in temperate regions, then removed after 3 h and 6 h of irradiation. The crystallizing dishes are rinsed with 2 ml ultrapure water and these solutions are analyzed by HPLC to determine their sulcotrione content.

SMILES | Surface area of region of infection [1] [cm^2] | sulcotrione disappearance after 3 hours of irradiation ([2]; Suntest, 3 h) [%] | sulcotrione disappearance (loss) after 6 hours of irradiation ([2]; Suntest, 6 h) | Sulcotrione content after 3 h irradiation ([2]; sulcotrione 8 mg/l, dry deposit on paraffin wax film, Suntest, 3 h) | Sulcotrione content after 6 h irradiation ([2]; sulcotrione 8 mg/l, dry deposit on paraffin wax film, Suntest, 6 h) | Initial sulcotrione content ([2]; sulcotrione 8 mg/l, dry deposit on paraffin wax film, before irradiation)
O=C(O)c1ccccc1O [Salicylic acid, salicylic acid] | 10.9 ± 2.8 | – | – | – | – | –
CS(=O)(=O)c1ccc(C(=O)C2C(=O)CCCC2=O)c(Cl)c1 [Sulcotrione alone, sulcotrione] | – | 65 | about 75% | 135 000 U.A. | 91 000 U.A. | 390 000 U.A.

From patent US11213033B2, “Method for reusing leaves from arborescent woody plants, for the phytopharmaceutical industry” (CENTRE NATIONAL DE LA RECHERCHE SCIENTIFIQUE—CNRS, priority 2014, dated 2022)
